The target of one assay is T1, Human Calpain 2/NS1 (Homo sapiens, UniProt P17655).
T1 sequence (P17655 1-700): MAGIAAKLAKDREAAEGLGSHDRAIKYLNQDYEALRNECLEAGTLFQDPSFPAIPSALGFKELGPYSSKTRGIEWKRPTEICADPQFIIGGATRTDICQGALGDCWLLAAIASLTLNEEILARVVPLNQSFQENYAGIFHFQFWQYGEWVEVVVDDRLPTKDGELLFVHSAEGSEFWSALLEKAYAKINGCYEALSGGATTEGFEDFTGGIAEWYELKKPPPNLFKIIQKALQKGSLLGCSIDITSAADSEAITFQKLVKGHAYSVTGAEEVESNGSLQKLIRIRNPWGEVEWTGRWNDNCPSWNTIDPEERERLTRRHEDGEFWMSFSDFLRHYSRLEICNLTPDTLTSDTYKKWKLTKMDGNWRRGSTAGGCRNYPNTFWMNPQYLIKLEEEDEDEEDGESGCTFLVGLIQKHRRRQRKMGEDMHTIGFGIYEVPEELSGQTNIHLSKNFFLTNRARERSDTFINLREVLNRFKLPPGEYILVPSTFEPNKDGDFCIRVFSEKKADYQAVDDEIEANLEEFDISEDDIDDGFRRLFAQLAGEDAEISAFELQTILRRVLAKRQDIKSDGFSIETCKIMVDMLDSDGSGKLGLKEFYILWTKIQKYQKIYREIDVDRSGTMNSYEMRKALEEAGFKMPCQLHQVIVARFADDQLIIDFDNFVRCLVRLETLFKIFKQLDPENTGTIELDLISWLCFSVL
T1 sequence (P04632 1-268 partner): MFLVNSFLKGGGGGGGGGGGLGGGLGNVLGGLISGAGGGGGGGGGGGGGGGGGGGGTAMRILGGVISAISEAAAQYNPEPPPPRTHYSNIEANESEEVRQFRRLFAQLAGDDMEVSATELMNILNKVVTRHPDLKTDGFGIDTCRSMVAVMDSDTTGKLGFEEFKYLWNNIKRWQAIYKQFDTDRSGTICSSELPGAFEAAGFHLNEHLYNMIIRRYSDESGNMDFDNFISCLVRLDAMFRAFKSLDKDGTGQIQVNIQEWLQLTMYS
Briefly: Biochemical inhibition of calpain 2, continuous fluorescence (FRET substrate) assay. The settings on record: mean, read-out: Human Calpain 2/NS1 IC50 (nM)_MEAN. The essentials: (§1)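 Continuous FRET assay with 5-FAM/QXL520 peptide substrate in 50 mM Tris pH ~7.5, 100 mM NaCl, 1 mM DTT. Enzyme preincubated with inhibitor at 25C; reaction started with substrate plus CaCl2, read at 490/520 nm for 10 min. Rates from slopes over 1-5 min, IC50 from 4-parameter logistic fit.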

The next assay concerns the target T2, Human Calpain 9/NS1 (Homo sapiens, UniProt O14815).
T2 sequence (O14815 1-690): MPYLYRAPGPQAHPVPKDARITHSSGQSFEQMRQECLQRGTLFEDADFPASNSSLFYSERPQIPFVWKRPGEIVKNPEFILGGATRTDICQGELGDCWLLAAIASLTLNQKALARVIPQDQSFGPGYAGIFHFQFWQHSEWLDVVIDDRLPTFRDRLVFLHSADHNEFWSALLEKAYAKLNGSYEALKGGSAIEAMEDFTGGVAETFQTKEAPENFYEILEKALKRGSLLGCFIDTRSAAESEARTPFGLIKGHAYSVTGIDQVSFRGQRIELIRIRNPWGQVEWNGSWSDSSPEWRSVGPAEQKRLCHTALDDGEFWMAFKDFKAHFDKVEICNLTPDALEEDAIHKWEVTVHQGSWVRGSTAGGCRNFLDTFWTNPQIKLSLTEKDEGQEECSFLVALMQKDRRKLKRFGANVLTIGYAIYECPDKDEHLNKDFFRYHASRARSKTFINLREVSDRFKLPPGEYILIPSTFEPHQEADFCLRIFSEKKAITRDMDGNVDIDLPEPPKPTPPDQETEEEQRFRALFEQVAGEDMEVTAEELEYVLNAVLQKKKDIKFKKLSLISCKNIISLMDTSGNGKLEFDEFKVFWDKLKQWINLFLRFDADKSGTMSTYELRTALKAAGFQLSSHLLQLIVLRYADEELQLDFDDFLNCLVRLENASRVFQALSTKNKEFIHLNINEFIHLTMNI
T2 sequence (P04632 1-268 partner): T1 sequence (P04632 1-268 partner)
Briefly: Biochemical inhibition of calpain 9, continuous fluorescence (FRET substrate) assay. The settings on record: mean, read-out: Human Calpain 9/NS1 IC50 (nM)_MEAN. The essentials: as §1

Another assay has as its target T3, Human Calpain 1/NS1 (Homo sapiens, UniProt P07384).
T3 sequence (P07384 1-714): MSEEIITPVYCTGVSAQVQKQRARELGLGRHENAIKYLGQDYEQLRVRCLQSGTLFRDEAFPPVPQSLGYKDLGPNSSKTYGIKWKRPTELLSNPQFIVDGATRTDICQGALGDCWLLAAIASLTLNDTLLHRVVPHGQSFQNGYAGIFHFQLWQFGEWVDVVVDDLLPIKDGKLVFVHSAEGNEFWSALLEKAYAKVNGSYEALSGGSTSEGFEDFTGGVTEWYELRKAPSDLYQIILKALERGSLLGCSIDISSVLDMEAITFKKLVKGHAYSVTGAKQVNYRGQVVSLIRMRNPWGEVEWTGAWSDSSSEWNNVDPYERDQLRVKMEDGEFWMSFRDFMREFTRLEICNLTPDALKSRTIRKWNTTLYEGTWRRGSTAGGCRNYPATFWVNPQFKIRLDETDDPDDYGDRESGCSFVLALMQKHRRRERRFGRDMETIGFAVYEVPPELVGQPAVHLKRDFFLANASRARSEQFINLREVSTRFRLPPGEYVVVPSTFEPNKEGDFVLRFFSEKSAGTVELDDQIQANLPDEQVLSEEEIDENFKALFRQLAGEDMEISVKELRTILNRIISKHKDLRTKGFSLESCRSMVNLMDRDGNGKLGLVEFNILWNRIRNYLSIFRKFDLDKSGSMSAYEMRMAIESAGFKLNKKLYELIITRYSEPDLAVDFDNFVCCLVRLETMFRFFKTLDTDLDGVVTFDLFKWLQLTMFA
T3 sequence (P04632 1-268 partner): T1 sequence (P04632 1-268 partner)
Briefly: Biochemical inhibition of calpain 1, continuous fluorescence (FRET substrate) assay. The settings on record: mean, read-out: Human Calpain 1/NS1 IC50 (nM)_MEAN. The essentials:
as §1

IC50 data for 15 molecules are collected here from patent US11292801B2, “Calpain modulators and therapeutic uses thereof” (Blade Therapeutics, Inc., priority 2016, dated 2022).

Bounds are passed on as bounds.

Regarding `CCNC(=O)C(=O)[C@@H]1Cc2ccc(cc2)OCCCCOc2ccc3c(cnn3-c3ncccc3C(=O)N1)c2` [Compound 47, N-ethyl-2-oxo-2-((5S)-3-oxo-1H-8,13-dioxa-4-aza-1(1,5)-indazola-2(2,3)-pyridina-7(1,4)-benzenacyclotridecaphane-5-yl)acetamide], the IC50 on Human Calpain 2/NS1, at Human Calpain 9/NS1 and at Human Calpain 1/NS1 was < 3000 nM each time.
In the case of `O=C[C@@H]1Cc2ccc(cc2)OCCCCOc2ccc3c(cnn3-c3ncccc3C(=O)N1)c2` [Compound 67, (5S)-3-oxo-1^1H-8,13-dioxa-4-aza-1(1,5)-indazola-2(2,3)-pyridina-7(1,4)-benzenacyclotridecaphane-5-carbaldehyde], the IC50 at Human Calpain 2/NS1, at Human Calpain 9/NS1 and on Human Calpain 1/NS1 was < 3000 nM throughout.
With `CC(C)NC(=O)C(=O)[C@@H]1C/C=C/COCCOCc2ccccc2C(=O)N1` [Compound 62, (S,E)-N-isopropyl-2-oxo-2-(12-oxo-1,3,4,6,9,10,11,12-octahydrobenzo[f][1,4]dioxa[9]azacyclotetradecin-10-yl)acetamide], the IC50 on Human Calpain 2/NS1, on Human Calpain 9/NS1 and on Human Calpain 1/NS1 was > 10000 nM in each case.
As for `CCOC(=O)CCNC(=O)C(=O)[C@@H]1C/C=C/COCCOCc2ccccc2C(=O)N1` [Compound 63, Ethyl (S,E)-3-(2-oxo-2-(12-oxo-1,3,4,6,9,10,11,12-octahydrobenzo[f][1,4]dioxa[9]azacyclotetradecin-10-yl)acetamido)propanoate], the IC50 at Human Calpain 2/NS1, at Human Calpain 9/NS1 and at Human Calpain 1/NS1 was > 10000 nM each time.
As to `O=C[C@@H]1CCCCCCCCCc2ccccc2C(=O)N1` [Compound 16, (S)-1-Oxo-1,2,3,4,5,6,7,8,9,10,11,12-dodecahydrobenzo[c][1]aza-cyclotetradecine-3-carbaldehyde], the figures for the IC50 at Human Calpain 2/NS1, on Human Calpain 9/NS1 and on Human Calpain 1/NS1 were < 3000 nM, < 3000 nM and 3000 to 10000 nM, respectively.
On to `NS(=O)(=O)c1ccc(CNC(=O)C(=O)C2CCCCOCCOCc3ccccc3C(=O)N2)cc1` (stereo not drawn) [Compound 84, 2-Oxo-2-(12-oxo-1,3,4,6,7,8,9,10,11,12-decahydrobenzo[f][1,4]dioxa[9]aza-cyclotetradecin-10-yl)-N-(4-sulfamoylbenzyl)acetamide], for which the IC50 is 3000 to 10000 nM at Human Calpain 2/NS1, < 3000 nM at Human Calpain 9/NS1 and > 10000 nM on Human Calpain 1/NS1.
The matching figures for `O=C[C@@H]1Cc2ccc(cc2)OC/C=C/COc2ccc3c(cnn3-c3ncccc3C(=O)N1)c2` [Compound 66, (5S,E)-3-oxo-1^1H-8,13-dioxa-4-aza-1(1,5)-indazola-2(2,3)-pyridina-7(1,4)-benzenacyclotridecaphan-10-ene-5-carbaldehyde]: < 3000 nM, < 3000 nM and < 3000 nM.
As for `NC(=O)C(=O)[C@@H]1CCCCCOc2cccc(c2)-c2n[nH]cc2C(=O)N1` [Compound 140, (S)-2-oxo-2-(11-oxo-1H-3-oxa-10-aza-1(3,4)-pyrazola-2(1,3)-benzena-cycloundecaphane-9-yl)acetamide], the IC50 at Human Calpain 2/NS1, on Human Calpain 9/NS1 and on Human Calpain 1/NS1 was < 3000 nM in each case.
As for `CCCCNC(=O)C(=O)[C@@H]1C/C=C/COCCOCc2ccccc2C(=O)N1` [Compound 64, (S,E)-N-butyl-2-oxo-2-(12-oxo-1,3,4,6,9,10,11,12-octahydrobenzo[f][1,4]dioxa[9]azacyclotetradecin-10-yl)acetamide], the IC50 on Human Calpain 2/NS1 is > 10000 nM; at Human Calpain 9/NS1 it was < 3000 nM; at Human Calpain 1/NS1, > 10000 nM.
For the molecule `CC(C)NC(=O)C(=O)[C@@H]1CCCCOCCOCc2ccccc2C(=O)N1` [Compound 52, (S)—N-isopropyl-2-oxo-2-(12-oxo-1,3,4,6,7,8,9,10,11,12-decahydrobenzo[f][1,4]dioxa[9]azacyclotetradecin-10-yl)acetamide], the IC50 on Human Calpain 2/NS1, at Human Calpain 9/NS1 and at Human Calpain 1/NS1 was > 10000 nM in each case.
Take `O=C(NCCc1ccc(Cl)cc1)C(=O)[C@@H]1C/C=C/COCCOCc2ccccc2C(=O)N1` [Compound 78, (S,E)-N-(4-chlorophenethyl)-2-oxo-2-(12-oxo-1,3,4,6,9,10,11,12-octahydrobenzo[f][1,4]dioxa[9]azacyclotetradecin-10-yl)acetamide]: the figures for the IC50 on Human Calpain 2/NS1, on Human Calpain 9/NS1 and at Human Calpain 1/NS1 were 3000 to 10000 nM, < 3000 nM and 3000 to 10000 nM, respectively.
On to `O=C(NCc1ccc(OC(F)(F)F)cc1)C(=O)C1CCCCOCCOCc2ccccc2C(=O)N1` (stereo not drawn) [Compound 87, 2-Oxo-2-(12-oxo-1,3,4,6,7,8,9,10,11,12-decahydrobenzo[f][1,4]dioxa[9]aza-cyclotetradecin-10-yl)-N-(4-(trifluoromethoxy)benzyl)acetamide], for which the IC50 on Human Calpain 2/NS1 is > 10000 nM; on Human Calpain 9/NS1, < 3000 nM; on Human Calpain 1/NS1, > 10000 nM.
Turning to `O=C[C@@H]1Cc2ccccc2CCCCCCOc2ccccc2C(=O)N1` [Compound 20, (S)-19-Oxo-6,7,8,9,10,11,16,17,18,19-decahydrodibenzo[b,h][1]oxa[5]aza-cyclopentadecine-17-carbaldehyde], the IC50 on Human Calpain 2/NS1 is < 3000 nM; at Human Calpain 9/NS1, < 3000 nM; at Human Calpain 1/NS1, 3000 to 10000 nM.
`CCNC(=O)C(=O)[C@@H]1Cc2ccc(cc2)OCCCCOc2cccc(c2)-c2ccn(n2)-c2ncccc2C(=O)N1` [Compound 45, N-ethyl-2-oxo-2-((6S,E)-4-oxo-2^1H-9,14-dioxa-5-aza-3(2,3)-pyridina-2(3,1)-pyrazola-1(1,3),8(1,4)-dibenzenacyclotetradecaphane-6-yl)acetamide]: the IC50 on Human Calpain 2/NS1, at Human Calpain 9/NS1 and at Human Calpain 1/NS1 was < 3000 nM throughout.
For the molecule `NC(=O)C(=O)[C@@H]1C/C=C\CCOc2ccnc(n2)-c2ccccc2C(=O)N1` [Compound 138, (S,Z)-2-oxo-2-(3-oxo-11-oxa-4-aza-1(2,4)-pyrimidina-2(1,2)-benzenacycloundecaphan-7-en-5-yl)acetamide], the IC50 on Human Calpain 2/NS1, at Human Calpain 9/NS1 and on Human Calpain 1/NS1 was < 3000 nM in each case.
